The numbers were not newly measured in US6790849B2, “Methods and compositions using optically pure (-) cetirizine in combination with leukotriene inhibitors or decongestants” (Sepracor Inc., priority 1998, dated 2004), which cites them from elsewhere.

The subject of data set [1] is allergen- or exercise-induced bronchoconstriction. To be noted: patients, doses as large as 20 mg.
For data set [2] the following is noted: for efficacy: 373 patients.
Data set [3] concerns leukotriene (LTH4, LTC4, LTD4, and LTE4) formation.
In data set [4] the test system is leukotriene-dependent smooth muscle contractions. To be noted: in vitro, guinea pig and human airways.
The next data set deals with LTB4 formation. The following applies: several species.
The test system of data set [5] is LTD4. The following applies: guinea pigs.
The test system of data set [6] is LTD4. The following applies: in vivo.
The test system of data set [7] is LTD4. The following applies: in vivo. The source holds these as a separate data set.
The test system of data set [8] is three leukotrienes in conducting airway smooth muscle. To be noted: in vitro, laboratory animals and humans.

Read-outs that look alike come from different tables or passages of the source.

Regarding `O=C(O)COCCN1CCN(C(c2ccccc2)c2ccc(Cl)cc2)CC1` (racemic) [cetirizine], in [1], the “preventing allergen- or exercise-induced bronchoconstriction” value was “not uniformly effective”.

Take `CC(c1cc2ccccc2s1)N(O)C(N)=O` (racemic) [zileuton, (±)-1-(1-Benso[b]thien-2-ylethyl)-1-hydroxyurea]: the efficacy result is given as “failed to do so” in [2] (400 mg) and “required to provide efficacy” in data set [2] (600 mg four times daily). Besides, the “adverse effects reported in some patients” value in [2] (some patients) was “headache, pain, asthenia, dyspepsia, nausea, and myalgia”. Further, the “leukotriene (LTH4, LTC4, LTD4, and LTE4) formation in vitro” value in [3] was “inhibit”. Also, the “leukotriene-dependent smooth muscle contractions” value in data set [4] was “inhibits”. In addition, in the data set on LTB4 formation, the “LTB4 formation ex vivo” value is on record as “inhibitor”.

In the case of `CC(C)(C)c1ccc(C(O)CCCN2CCC(C(O)(c3ccccc3)c3ccccc3)CC2)cc1` (stereo not drawn) [terfenadine], in the data set with LTD4 [5], the “increase in airway resistance caused by LTD4” value was “suppressed”.

On to `COc1cc(C(=O)NS(=O)(=O)c2ccccc2C)ccc1Cc1cn(C)c2ccc(NC(=O)OC3CCCC3)cc12` [zafirlukast, 4-(5-cyclopentyloxy-carbonylamino-1-methyl-indol-8-ylmethyl)-3-methoxy-N-o-tolylsulfonylbenzamide], for which the “adverse effects reported in some patients” value is “headache, infection, nausea, diarrhea, pain, asthenia, abdominal pain, dizziness, myalgia, fever, vomiting, SGPT elevation, and dyspepsia”. Besides, the “intradermal LTD4-induced increases in cutaneous vascular permeability” value with LTD4 [6] was “prevented”. In addition, the “inhaled LTD4-induced influx of eosinophils into animal lungs” value in the data set with LTD4 [7] is recorded as “inhibited”. Besides, the “contractile activity of three leukotrienes in conducting airway smooth muscle” value in [8] is “antagonized”.
